Type in all cases: in vivo
Experiment [1] relates to Spodoptera litura. Put plainly: Spodoptera litura, diet incorporation method. Conditions: third instar larvae, 96 h after release, dead + moribund vs untreated control, read-out: percent mortality. As to the method: (§1) The diet incorporation method was used, in which the required quantity of the test compound was weighed and dissolved in a tube containing solvent solution. The tube was put on a vortex at 2000 rpm for 90 min for proper mixing. Semi-synthetic diet was incorporated into this solution when the temperature was approximately 50° C. in the bioassay containers. Compound and diet were stirred thoroughly for proper mixing and allowed to cool for 30 min. The solidified diet was cut into equal pieces, and then each piece was transferred into one cell of a bio-assay tray. A single starved third instar larva was released into each of the cells of the bioassay trays and the tray was covered with the lid. The bio-assay trays were then kept under laboratory conditions at a temperature of 25° C. and a relative humidity of 70%. Observations on dead, moribund and alive larvae were recorded 96 h after the release of larvae. Percent mortality was calculated by combining dead and moribund larvae and comparing the result to the one of the untreated control.

Experiment [2] relates to Plutella xylostella. Description: Plutella xylostella, leaf dip method. The settings on record: foliar, cabbage leaf dip, second instar larvae, 72 h after release, dead + moribund vs untreated control, read-out: percent mortality. In a few lines: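 Cabbage leaves were dipped for 10 s in compound diluted with 0.01% Triton-X, shade dried and offered singly to second instar larvae. Trays were held at 25° C. and 70% relative humidity. Dead plus moribund larvae were scored at 72 h, and percent mortality was expressed relative to untreated control.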

In experiment [3] the test system is Helicoverpa armigera. Description: Helicoverpa armigera, diet incorporation method. Conditions: third instar larvae, 96 h after release, dead + moribund vs untreated control, read-out: percent mortality. The method, then:
as §1, with “covered with a lid. The” for “covered with the lid. The”, “release of the larvae. Percent” for “release of larvae. Percent”

Each structure is given as a SMILES string.

Data on 22 compounds can be found in patent publication US12514251B2, “Fused heterocyclic compounds and their use as pest control agents” (priority 2020, dated 2026).

For `CCS(=O)(=O)c1cc(C=CC2CC2)cnc1-c1ccn2nc(C(F)(F)F)cc2n1` [Compound 205, 5-(5-(2-cyclopropylvinyl)-3-(ethylsulfonyl)pyridin-2-yl)-2-(trifluoromethyl)pyrazolo[1,5-a]pyrimidine], the mortality at 300 ppm in experiment [1] and in experiment [2] was at least 70% each time.

In the case of `CCS(=O)(=O)c1cc(-c2ccn3nc(C(F)(F)F)cc3n2)cnc1-n1nccn1` [Compound 39, 5-(5-(ethylsulfonyl)-6-(2H-1,2,3-triazol-2-yl)pyridin-3-yl)-2-(trifluoromethyl)pyrazolo[1,5-a]pyrimidine], the mortality at 300 ppm in experiment [1], in experiment [3] and in experiment [2] was at least 70% each time.

In the case of `CCS(=O)(=O)c1ccc(-n2ccc(C(F)(F)F)n2)nc1-c1ccn2nc(C(F)(F)F)cc2n1` [Compound 34, 5-(3-(ethylsulfonyl)-6-(3-(trifluoromethyl)-1H-pyrazol-1-yl)pyridin-2-yl)-2-(trifluoromethyl)pyrazolo[1,5-a]pyrimidine], the mortality at 300 ppm in experiment [3] and in experiment [2] was at least 70% each time.

As to `CCS(=O)(=O)c1cc(-c2ccc(Cl)cc2)cnc1-c1ccn2nc(C(F)(F)F)nc2n1` [Compound 101, 5-(5-(4-chlorophenyl)-3-(ethylsulfonyl)pyridin-2-yl)-2-(trifluoromethyl)-[1,2,4]triazolo[1,5-a]pyrimidine], the mortality at 300 ppm in experiment [1] and in experiment [2] was at least 70% each time.

For the compound `CCS(=O)(=O)c1cc(-n2nc(C(F)(F)F)cc2C)cnc1-c1ccn2nc(C(F)(F)F)cc2n1` [Compound 38, 5-(3-(ethylsulfonyl)-5-(5-methyl-3-(trifluoromethyl)-1H-pyrazol-1-yl)pyridin-2-yl)-2-(trifluoromethyl)pyrazolo[1,5-a]pyrimidine], the mortality at 300 ppm in experiment [1], in experiment [3] and in experiment [2] was at least 70% each time.

Turning to `CCS(=O)(=O)c1cc(-c2ccc(OC(F)(F)F)cc2)cnc1-c1ccn2nc(C(F)(F)F)cc2n1` [Compound 66, 5-(3-(ethylsulfonyl)-5-(4-(trifluoromethoxy)phenyl)pyridin-2-yl)-2-(trifluoromethyl)pyrazolo[1,5-a]pyrimidine], the mortality at 300 ppm in experiment [1], in experiment [3] and in experiment [2] was at least 70% throughout.

Turning to `CCS(=O)(=O)c1cc(-c2ncccn2)cnc1-c1ccn2nc(C(F)(F)F)cc2n1` [Compound 231, 5-(3-(ethylsulfonyl)-5-(pyrimidin-2-yl)pyridin-2-yl)-2-(trifluoromethyl)pyrazolo[1,5-a]pyrimidine], the mortality at 300 ppm in experiment [1], in experiment [3] and in experiment [2] was at least 70% in each case.

With `CCS(=O)(=O)c1cc(OC(F)F)cnc1-c1ccn2nc(C(F)(F)F)cc2n1` [Compound 229, 5-(5-(difluoromethoxy)-3-(ethylsulfonyl)pyridin-2-yl)-2-(trifluoromethyl)pyrazolo[1,5-a]pyrimidine], the mortality at 300 ppm in experiment [3] and in experiment [2] was at least 70% each time.

For the compound `CCS(=O)(=O)c1cc(-c2ccn3nc(C(F)(F)F)cc3n2)cnc1-n1nc2ccc(C(F)(F)F)cn2c1=O` [Compound 75, 2-(3-(ethylsulfonyl)-5-(2-(trifluoromethyl)pyrazolo[1,5-a]pyrimidin-5-yl)pyridin-2-yl)-6-(trifluoromethyl)-[1,2,4]triazolo[4,3-a]pyridin-3(2H)-one], the mortality at 300 ppm in experiment [3] and in experiment [2] was at least 70% each time.

Turning to `CCS(=O)(=O)c1cc(-n2cc(F)cn2)cnc1-c1ccn2nc(C(F)(F)F)cc2n1` [Compound 70, 5-(3-(ethylsulfonyl)-5-(4-fluoro-1H-pyrazol-1-yl)pyridin-2-yl)-2-(trifluoromethyl)pyrazolo[1,5-a]pyrimidine], the mortality at 300 ppm in experiment [3] and in experiment [2] was at least 70% in each case.

With `CCS(=O)(=O)c1cc(-c2ccc(OC(F)(F)F)cc2)cnc1-c1ccn2nc(C(F)(F)F)nc2n1` [Compound 100, 5-(3-(ethylsulfonyl)-5-(4-(trifluoromethoxy)phenyl)pyridin-2-yl)-2-(trifluoromethyl)-[1,2,4]triazolo[1,5-a]pyrimidine], the mortality at 300 ppm in experiment [1], in experiment [3] and in experiment [2] was at least 70% each time.

As to `CCS(=O)(=O)c1cc(C2CC2)cnc1-c1ccn2nc(C(F)(F)F)cc2n1` [Compound 136, 5-(5-cyclopropyl-3-(ethylsulfonyl)pyridin-2-yl)-2-(trifluoromethyl)pyrazolo[1,5-a]pyrimidine], the mortality at 300 ppm in experiment [1], in experiment [3] and in experiment [2] was at least 70% each time.

With `CCS(=O)(=O)c1cc(-c2ccc(Cl)c(Cl)c2)cnc1-c1ccn2nc(C(F)(F)F)cc2n1` [Compound 155, 5-(5-(3,4-dichlorophenyl)-3-(ethylsulfonyl)pyridin-2-yl)-2-(trifluoromethyl)pyrazolo[1,5-a]pyrimidine], the mortality at 300 ppm in experiment [1], in experiment [3] and in experiment [2] was at least 70% each time.

Regarding `CCS(=O)(=O)c1cc(-c2cc(F)cc(F)c2)cnc1-c1ccn2nc(C(F)(F)F)cc2n1` [Compound 125, 5-(5-(3,5-difluorophenyl)-3-(ethylsulfonyl)pyridin-2-yl)-2-(trifluoromethyl)pyrazolo[1,5-a]pyrimidine], the mortality at 300 ppm in experiment [1] and in experiment [2] was at least 70% in each case.

For the compound `CCS(=O)(=O)c1cc(-c2ccc(OC(F)(F)C(F)F)cc2)cnc1-c1ccn2nc(C(F)(F)F)cc2n1` [Compound 96, 5-(3-(ethylsulfonyl)-5-(4-(1,1,2,2-tetrafluoroethoxy)phenyl)pyridin-2-yl)-2-(trifluoromethyl)pyrazolo[1,5-a]pyrimidine], the mortality at 300 ppm in experiment [1], in experiment [3] and in experiment [2] was at least 70% throughout.

Consider `CCS(=O)(=O)c1cc(-c2cccc(C(F)(F)F)c2)cnc1-c1ccn2nc(C(F)(F)F)cc2n1` [Compound 156, 5-(3-(ethylsulfonyl)-5-(3-(trifluoromethyl)phenyl)pyridin-2-yl)-2-(trifluoromethyl)pyrazolo[1,5-a]pyrimidine], for which the mortality at 300 ppm in experiment [1], in experiment [3] and in experiment [2] was at least 70% throughout.

Regarding `CCS(=O)(=O)c1cc(-c2ccc(Cl)c(F)c2)cnc1-c1ccn2nc(C(F)(F)F)cc2n1` [Compound 126, 5-(5-(4-chloro-3-fluorophenyl)-3-(ethylsulfonyl)pyridin-2-yl)-2-(trifluoromethyl)pyrazolo[1,5-a]pyrimidine], the mortality at 300 ppm in experiment [1], in experiment [3] and in experiment [2] was at least 70% each time.

Take `CCS(=O)(=O)c1ccc(-n2ncn(-c3ccc(Cl)cc3)c2=O)nc1-c1ccn2nc(C(F)(F)F)cc2n1` [Compound 7, 4-(4-chlorophenyl)-2-(5-(ethylsulfonyl)-6-(2-(trifluoromethyl)pyrazolo[1,5-a]pyrimidin-5-yl)pyridin-2-yl)-2,4-dihydro-3H-1,2,4-triazol-3-one]: the mortality at 300 ppm in experiment [3] and in experiment [2] was at least 70% each time.

For `CCS(=O)(=O)c1ccc(-c2ccc(OC(F)(F)F)cc2)nc1-c1ccn2nc(C(F)(F)F)cc2n1` [Compound 17, 5-(3-(ethylsulfonyl)-6-(4-(trifluoromethoxy)phenyl)pyridin-2-yl)-2-(trifluoromethyl)pyrazolo[1,5-a]pyrimidine], the mortality at 300 ppm in experiment [1] and in experiment [2] was at least 70% each time.

Turning to `CCS(=O)(=O)c1cc(-c2cc(Cl)cc(Cl)c2)cnc1-c1ccn2nc(C(F)(F)F)cc2n1` [Compound 76, 5-(5-(3,5-dichlorophenyl)-3-(ethylsulfonyl)pyridin-2-yl)-2-(trifluoromethyl)pyrazolo[1,5-a]pyrimidine], the mortality at 300 ppm in experiment [1] and in experiment [3] was at least 70% throughout.

With `CCS(=O)(=O)c1cc(-c2ccn3nc(C(F)(F)F)cc3n2)cnc1-n1ccc(C(F)(F)F)n1` [Compound 37, 5-(5-(ethylsulfonyl)-6-(3-(trifluoromethyl)-1H-pyrazol-1-yl)pyridin-3-yl)-2-(trifluoromethyl)pyrazolo[1,5-a]pyrimidine], the mortality at 300 ppm in experiment [1] and in experiment [2] was at least 70% each time.

With `CCS(=O)(=O)c1ccc(-n2ncn(-c3cc(Cl)cc(Cl)c3)c2=O)nc1-c1ccn2nc(C(F)(F)F)cc2n1` [Compound 8, 4-(3,5-dichlorophenyl)-2-(5-(ethylsulfonyl)-6-(2-(trifluoromethyl)pyrazolo[1,5-a]pyrimidin-5-yl)pyridin-2-yl)-2,4-dihydro-3H-1,2,4-triazol-3-one], the mortality at 300 ppm in experiment [3] and in experiment [2] was at least 70% each time.
